The source of these data is US20110150769A1, “IDENTIFICATION AND USE OF COMPOUNDS FOR TREATING PERSISTENT PAIN” (priority 2009, published 2011).

Entries after “also recorded” stand apart in the source; their conditions may differ.

The subject of one series is DRG neurons. Briefly: Calcium imaging of cultured DRG neurons. Type of series: cell-based, mouse. The procedure: Calcium Imaging of Cultured Dorsal Root Ganglia (DRG) Neurons
DRG neurons were plated on poly-D-lysine/laminin-coated coverslips and cultured for 24 hours. […] Briefly, neurons were loaded with Fura 2-acetomethoxy ester (Molecular Probes) for 30 min in dark at room temperature. After washing, neurons were imaged at 340/380 nm excitation to detect intracellular free calcium. All tests were performed with an experimenter blinded to the genotype.

Series [1] has as its system chronic constriction injury model of neuropathic pain in mice. Briefly: CCI-induced mechanical allodynia (von Frey test) after intrathecal injection. Particulars: 0.5 mM, 5 μl i.th. Type of series: in vivo, mouse. An excerpt: A chronic constriction injury (CCI) at the left sciatic nerve was induced in adult male mice. Inhalation anesthesia was induced with a constant level of isoflurane (2.0%) delivered through a nose cone. Under aseptic conditions, the left sciatic nerve at the middle thigh level was separated from the surrounding tissue and loosely tied with three nylon sutures (9-0 nonabsorbable-monofilament, S&T AG, Neuhausen, Switzerland). The distance between two adjacent ligatures was around 0.5 mm.
CCI-induced mechanical allodynia: mechanical sensitivity was assessed with the von Frey test using the frequency method. Two calibrated von Frey monofilaments (low force: 0.07 g and high force: 0.45 g) were used. Each von Frey filament was applied perpendicularly to the plantar side of each hind paw for approximately 1 sec; the stimulation was repeated 10 times to both hind paws. The occurrence of paw withdrawal in each of these 10 trials was expressed as a percent response frequency: paw withdrawal frequency (PWF)=(number of paw withdrawals/10 trials)×100%.
BAM 8-22 was purchased from Tocris (Bristol, UK) and was suspended in 0.9% saline. The drug was injected intrathecally under brief isoflurane (1.5%) anesthesia to reduce stress. […]

The test system of series [2] is WDR neurons in the dorsal horn of the spinal cord. Nature of the series: Electrophysiological recording of WDR neurons, spinal topical application. It counts as in vivo, mouse. The settings on record: for A-latency / A-threshold / C-latency / C-threshold: post-BAM 8-22. The procedure:
The electrophysiological recording of WDR neurons in the dorsal horn of the spinal cord was performed by an experimenter blinded to the genotype as previously described in Guan et al., 2006, J. Neurosci., 26:4298-4307. Mice were paralyzed with pancuronium bromide (0.15 mg/kg, i.p.) during neurophysiological recording. Throughout the experiment, anesthesia was maintained with a constant level of isoflurane (1.5%) carried in med-air. A spinal unit with a cutaneous receptive field located in the plantar area of the hind paw was located by applying mechanical stimuli. WDR neurons were defined as those that responded to both innocuous and noxious mechanical stimuli and that had increasing rates of response to increasing intensities of stimuli. Electrical stimuli were applied through a pair of fine needles inserted subcutaneously across the central plantar area of the hind paw 0.3-0.4 cm apart. Extracellular recordings of individual neurons were obtained by using fine-tip (<1.0 μm) paralyn-coated tungsten micro-electrodes ([…] at 1 kHz).
BAM 8-22 or vehicle control was applied directly to the exposed surface of the spinal cord at the recording segment in a volume of 30-50 μl following pre-drug tests. The effects of BAM 8-22 on the spontaneous activity of WDR neurons were examined within 0-10 min after application. The evoked neuronal responses were recorded 10-30 minutes after drug application. Only one neuron in each animal was used to test the drug effects. The post-drug responses were compared with the pre-drug responses, allowing each neuron to act as its own control.
The number of action potentials (APs) evoked by graded electrical stimuli was compared between two genotypes, using a two-way mixed-model analysis of variance (ANOVA) with Fisher's protected least significant difference (LSD) post-hoc test. Student's t-test was used to compare the recording depth, activation threshold and latency of the first A-fiber-mediated and the first C-fiber-mediated responses, respectively, between the two groups. For wind-up, the raw data were the number of APs in the C-component evoked by each stimulus in a train of repetitive electrical stimulation. Since the number of APs in the C-component varies among WDR neurons, the raw data for each neuron were normalized to the first response in each trial (input) and then averaged. A two-way mixed-model ANOVA was used to compare wind-up and the averaged C-component responses to the last 10 stimuli (7th-16th) of the trial between the two genotypes and between pre- and post-drug conditions. Data are presented as mean±standard error of mean (S.E.M). Statistical comparisons were made using unpaired Student's t-test and differences were considered significant at p<0.05.

The next series concerns awake mice. Briefly: Spontaneous pain responses after intrathecal injection in awake mice. Type of series: in vivo, mouse. Particulars: awake WT and Mrgpr-clusterΔ−/− mice. Here is the method: BAM 8-22 was purchased from Tocris (Bristol, UK) and was suspended in 0.9% saline. The drug was injected intrathecally under brief isoflurane (1.5%) anesthesia to reduce stress. A 30-gauge, 0.5-inch needle connected to a 10-μl syringe was inserted into one side of the L5 or L6 spinous process at an angle of approximately 20° above the vertebral column and slipped into the groove between the spinous and transverse processes. The needle was moved carefully forward to the intervertebral space.
Intrathecal injection of BAM 8-22 in awake mice elicited short-term (less than 10 min) spontaneous pain responses.

A further series concerns the target T1, mouse MrgprC11 (Mus musculus, UniProt Q8CIP3).
T1 sequence (Q8CIP3 1-322): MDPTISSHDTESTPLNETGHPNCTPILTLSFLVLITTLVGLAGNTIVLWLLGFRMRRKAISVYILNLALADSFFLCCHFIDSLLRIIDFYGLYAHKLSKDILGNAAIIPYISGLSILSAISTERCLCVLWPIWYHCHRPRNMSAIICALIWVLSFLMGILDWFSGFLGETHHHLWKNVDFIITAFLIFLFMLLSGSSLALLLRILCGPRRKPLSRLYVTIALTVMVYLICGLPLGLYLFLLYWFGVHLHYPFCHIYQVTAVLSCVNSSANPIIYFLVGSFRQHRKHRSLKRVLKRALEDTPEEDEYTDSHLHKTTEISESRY
The settings on record: Han et al, 2002, Lembo et al.; cited from earlier work.

In the next series the test system is opioid receptors. Particulars: literature; cited from earlier work.
Where [3] appears, read: Mrgpr-clusterΔ−/− mice, 0.1 mM, 30-50 μl.

On to BAM 8-22, for which the “responses in DRG neurons” value with DRG neurons (adult mutant (Mrgpr-clusterΔ−/−) DRG neurons) was “no responses”. In addition, the “percentage of DRG neurons responding, WT vs MrgprA1GFP/GFP mice” value in the series on DRG neurons (comparison of WT and MrgprA1GFP/GFP mice) is given as “did not differ significantly”. Moreover, the “responses in DRG neurons” value in the series on DRG neurons (newborn Mrgpr-clusterΔ−/− mice) is given as “few or no responses”. In addition, the “CCI-induced mechanical pain hypersensitivity (paw withdrawal frequency), ipsilateral hind paw” value in series [1] (WT mice, low-force 0.07 g and high-force 0.45 g, 14-18 days post-injury, after 30 min) was “significantly attenuated; also recorded: significantly reduced”. In addition, the “paw withdrawal responses (PWF) of the contralateral, uninjured side” value in series [1] (either group) was “did not significantly change; also recorded: did not significantly reduce”. Further, the “input value and C-component responses of WDR neurons to 0.5 Hz stimulation” value in series [2] (Mrgpr-clusterΔ−/− mice) was “significantly increased”. Moreover, in series [2] (setting [3]), the “input value and C-component responses of WDR neurons to repetitive (0.5 and 1.0 Hz) stimulation” value was “significantly increased”; the “wind-up levels (normalized to the input value)” value is reported as “not increased”. In addition, the “C-component responses of WDR neurons to graded electrical stimulation” value in series [2] (Mrgpr-clusterΔ−/− mice, n=17, 0.1 mM, intensities >1.0 mA (2.0-5.0 mA)) was “significantly increased”. Moreover, in series [2] (Mrgpr-clusterΔ−/−), the A-latency came out at 12.9 ± 0.6 ms, the A-threshold is recorded as 0.19 ± 0.03 mA, the C-latency is 118 ± 4 ms and the C-threshold came to 1.9 ± 0.6 mA. The “windup response after saline wash-out” value in series [2] (WT WDR neuron, 0.5 Hz, 10-30 min after saline wash-out) is on record as “partially recovered”. Besides, the “wind-up / C-component responses to 0.5 Hz and 1.0 Hz stimulation” value in series [2] (WT mice, n=25, 0.1 mM, 30-50 μl) is recorded as “significantly attenuated; also recorded: inhibited”. For the same substance, the “windup of WDR neurons to 0.5 Hz stimulation” value in series [2] (WT mice, n=25, spinal superfusion, 10-30 min after application) is given as “significantly attenuated; also recorded: significantly decreased; also recorded: substantially attenuated”. In series [2] (Wild-type), this substance had an A-latency of 12.1 ± 0.7 ms, an A-threshold of 0.17 ± 0.03 mA, a C-latency of 115 ± 4 ms and a C-threshold of 1.7 ± 0.4 mA. Besides, in series [2] (either WT or Mrgpr-clusterΔ−/− mice), the “threshold and latency of the first C-fiber-mediated action potential” value is listed as “unaffected”. For the same substance, the “duration of spontaneous pain responses elicited by intrathecal injection” value in the series on awake mice is “less than 10 min”. At mouse MrgprC11, the “activation of mouse MrgprC11” value was “specifically activates”. In addition, the “activation of opioid receptors” value in the series with opioid receptors is listed as “but not opioid receptors”.
